Laboratory results from patent US20240122926A1, “APELIN RECEPTOR MODULATORS FOR TREATING MUSCLE CONDITIONS” (priority 2022, published 2024).
“Also recorded” adds a separate entry of the source.

Experiments:
human APLNR = molecular target: T1, human APLNR (Homo sapiens, UniProt P35414); test: cell-based; conditions: CHO, read-out: maximum effect (Emax)
T1 sequence (P35414 1-380): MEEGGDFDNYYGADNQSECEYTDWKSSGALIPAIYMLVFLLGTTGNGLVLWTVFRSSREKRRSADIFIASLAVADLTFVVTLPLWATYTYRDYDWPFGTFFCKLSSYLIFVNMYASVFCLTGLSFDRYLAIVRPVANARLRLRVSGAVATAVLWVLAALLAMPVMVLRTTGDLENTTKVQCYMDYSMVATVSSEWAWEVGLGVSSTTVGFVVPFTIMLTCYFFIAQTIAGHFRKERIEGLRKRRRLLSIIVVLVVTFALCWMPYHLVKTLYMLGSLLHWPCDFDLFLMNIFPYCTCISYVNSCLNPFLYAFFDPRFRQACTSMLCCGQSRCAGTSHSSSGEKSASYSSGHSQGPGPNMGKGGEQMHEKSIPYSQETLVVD
Experimental: APLNR activation was determined by β-arrestin recruitment as measured by the ProLink […] complementation technology (93-0001, DiscoveRx). In brief, CHO cells stably expressing APLNR were seeded and incubated overnight at 37° C. The compounds were tested in duplicate and diluted to obtain a 10-point curve with 3-fold serial dilutions (<1% DMSO). The compounds and cells were incubated for 3 hours at 37° C. After the incubation period the detection reagents were added and the plate chemiluminescent signal was measured after 30 min at RT.

[1] = test system: Twenty-month-old male C57/Bl6 mice; test: Hindlimb immobilization (casting, 21 days) disuse atrophy in aged mice, muscle wet weight; assay type: in vivo, mouse; conditions: 50 mg/kg BID P.O.; 21 days immobilization (placebo group 25%)
Excerpt: Limb immobilization causes a loss of gross skeletal muscle mass accompanied by a significant decrease in apelin transcript levels.
One week into the treatment, mice underwent modified hindlimb casting on one limb. Mice were anesthetized with isoflurane inhalation and the hindlimb wiped with povidone-iodine, then ethanol, and loosely wrapped in surgical gauze. A custom-made plastic immobilization device was placed on the limb, with the foot in full extension, so as to result in the maximal in vivo unloading of the plantarflexor group. The device was fixed to the hindlimb using Vetbond and the animal returned to its cage. After 3 weeks of treatment following casting, mice were euthanized 1 hour after the final ZT1 dose, and tissues isolated, weighed, then flash frozen in liquid nitrogen for subsequent western blot analysis.

[2] = 14-day IV study in rat (toxicology exposure); assay type: in vivo
Experimental: The updated exposure margins considering the highest maximum exposures in rats and dogs are calculated as follows: maximum exposure in the rat (male) was in the 14-day IV study and at the 300 mg/kg dose, the AUClast is 1070 μg*hr/mL; maximum exposure in dogs occurred at the 300 mg/kg dose in the 9-month oral toxicity study and the AUClast is 1310*μg·hr/mL.

[3] = Phase 1 study BGE-105-101 Part A (SAD), pharmacokinetics after IV infusion; assay type: in vivo, human; conditions: for Dose-normalized AUCinf / Dose-normalized Cmax: unit assumed; for AUC(0-t) / AUC(0-inf) / half-life / Cmax: human, plasma; for AUC(0-t) / AUC(0-inf) / half-life: intravenous; for Cmax: iv, IV infusion
Experimental: After a baseline period of 24 hours in the clinic, all subjects receive a LD, 1-hour infusion on Day 1. After a 48-hour wash-out period, in which PK and PK/PD data is collected, subjects receive a 23-hour infusion (1-hour LD followed by a 22-hour maintenance dose). See FIG. 10 for the different dose levels in each SAD cohort. See e.g., Table 3 below. Part A is double-blinded. The cohorts of Part A is conducted sequentially starting with SAD cohort 1.
On Day 1 for Part A, subjects receive LD, 1-hour infusion. On Day 3, after a 48-hour washout period, subjects then receive a 23-hour infusion (1-hour LD followed by a 22-hour MD). No earlier than 24 hours after the end of infusion, subjects is discharged from the clinic on Day 5 (End of Treatment Period [EOTP]). A treatment protocol for the SAD cohorts of Part A is outlined in FIG. 12 and is described in Table 9 below.
Relevant plasma PK parameters are derived for BGE-105 by standard noncompartmental methods and tabulated along with descriptive statistics and graphs.

healthy adult subjects = test: Phase 1 study Part A (SAD), safety and tolerability; assay type: in vivo, human; conditions: SAD cohorts
Experimental: Safety data is summarized using descriptive statistics (number of subjects, mean, median, standard deviation, minimum, and maximum) for continuous variables and using frequency and percentages for discrete variables.
Adverse events are coded using the Medical Dictionary for Regulatory Activities. The number of events, incidence, and percentage of TEAEs are calculated overall by system organ class, preferred term, and treatment group for each cohort and treatment group. The number and percentage of subjects with TEAEs are further summarized by severity and relationship to study drug. AEs related to study drug, AEs leading to withdrawal, SAEs, and deaths are also similarly summarized and/or listed in a similar manner.

[4] = test system: fast and slow skeletal muscle; test: snRNAseq of vastus lateralis muscle biopsies from Phase 1b study; assay type: in vivo, human
Excerpt: FIG. 40 illustrates nuclei isolation for 10× Genomics single cell transcriptome gene expression technology used to assess tissue samples. […] Tissue samples were collected from patients and processed in a laboratory. Tissues were dissociated and cleaned up. The debris were removed and the sample (e.g., nuclei) was washed, resuspended for multiple cycles according to routine tissue processing procedures. Cell nuclei were visualized and counted using standard transcriptome gene expression technologies 10× Genomics single cell library technology is used for assessing tissue samples.
Cell type clustered include fast skeletal muscle, slow skeletal muscle (type 1), myofibroblast, tenocytes, fibroblasts, muscle stem cells, pericytes, smooth muscle, endothelial cells, T/NK cells, and adipocytes. Two methods and two annotations were used.

[5] = SAD1 (60 mg/360 mg), Day 1, mean
[6] = SAD2 (120 mg/720 mg), Day 1, mean
[7] = SAD3 (240 mg/1440 mg), Day 1, mean

SMILES: COc1cccc(OC)c1-n1c(NS(=O)(=O)[C@@H](C)[C@H](C)c2ncc(C)cn2)nnc1-c1cncc(C)c1 [BGE-105, (2S,3R)—N-(4-(2,6-dimethoxyphenyl)-5-(5-methyl-3-pyridinyl)-4H-1,2,4-triazol-3-yl)-3-(5-methyl-2-pyrimidinyl)-2-butanesulfonamide]
- Emax (human APLNR): 114%
- decrease of wet weight of tibialis anterior (TA) muscle in casted limb [1]: 3%
- predicted human exposure margin Human:Rat ([2]; 240 mg loading dose + 1440 mg IV for 22 hours, 1036/1070): 0.97
- AUC(0-t) ([2]; in vivo, rat (male), 14-day IV study, 300 mg/kg, read-out: AUClast, maximum exposure): 1070 µg·h/mL
- NOAEL ([2]; rat): maximum dose tested
- dose proportionality / linearity of PK ([3]; 3 SAD cohorts, dose vs Cmax and AUC): dose proportionality; also recorded: linear
- Dose-normalized AUCinf [3, 5]: 0.66 µg·h/mL/mg
- Dose-normalized Cmax [3, 5]: 0.12 µg/mL/mg
- Dose-normalized AUCinf [3, 6]: 0.49 µg·h/mL/mg
- Dose-normalized Cmax [3, 6]: 0.11 µg/mL/mg
- Dose-normalized AUCinf [3, 7]: 0.5 µg·h/mL/mg
- Dose-normalized Cmax [3, 7]: 0.11 µg/mL/mg
- AUC(0-t) ([3]; 60 mg, SAD1 (60 mg/360 mg), Day 1, mean, read-out: AUC0-24): 34.7 µg·h/mL
- AUC(0-t) ([3]; 60 mg, SAD1 (60 mg/360 mg), Day 1, mean, read-out: AUClast): 37.4 µg·h/mL
- AUC(0-t) ([3]; 120 mg, SAD2 (120 mg/720 mg), Day 1, mean, read-out: AUC0-24): 53.7 µg·h/mL
- AUC(0-t) ([3]; 120 mg, SAD2 (120 mg/720 mg), Day 1, mean, read-out: AUClast): 56.8 µg·h/mL
- AUC(0-t) ([3]; 240 mg, SAD3 (240 mg/1440 mg), Day 1, mean, read-out: AUC0-24): 107 µg·h/mL
- AUC(0-t) ([3]; 240 mg, SAD3 (240 mg/1440 mg), Day 1, mean, read-out: AUClast): 114 µg·h/mL
- AUC(0-t) ([3]; SAD1 (60 mg/360 mg), Day 3, mean, read-out: AUC0-24): 173 µg·h/mL
- AUC(0-t) ([3]; SAD1 (60 mg/360 mg), Day 3, mean, read-out: AUClast): 306 µg·h/mL
- AUC(0-t) ([3]; SAD2 (120 mg/720 mg), Day 3, mean, read-out: AUC0-24): 267 µg·h/mL
- AUC(0-t) ([3]; SAD2 (120 mg/720 mg), Day 3, mean, read-out: AUClast): 450 µg·h/mL
- AUC(0-t) ([3]; SAD3 (240 mg/1440 mg), Day 3, mean, read-out: AUC0-24): 612 µg·h/mL
- AUC(0-t) ([3]; SAD3 (240 mg/1440 mg), Day 3, mean, read-out: AUClast): 1060 µg·h/mL
- AUC(0-t) ([3]; highest dose (240 mg/1440 mg), read-out: AUClast): 1060 µg·h/mL
- AUC(0-inf) [3, 5]: 39600 ng·h/mL
- half-life [3, 5]: 546 min
- AUC(0-inf) [3, 6]: 58800 ng·h/mL
- half-life [3, 6]: 516 min
- AUC(0-inf) [3, 7]: 119000 ng·h/mL
- half-life [3, 7]: 534 min
- Cmax ([3]; 60 mg, SAD1 (60 mg/360 mg), Day 1, mean): 7430 ng/mL
- Cmax ([3]; 120 mg, SAD2 (120 mg/720 mg), Day 1, mean): 13700 ng/mL
- Cmax ([3]; 240 mg, SAD3 (240 mg/1440 mg), Day 1, mean): 26700 ng/mL
- Cmax ([3]; SAD1 (60 mg/360 mg), Day 3, mean): 10100 ng/mL
- Cmax ([3]; SAD2 (120 mg/720 mg), Day 3, mean): 14800 ng/mL
- Cmax ([3]; SAD3 (240 mg/1440 mg), Day 3, mean): 35600 ng/mL
- serious adverse events (healthy adult subjects): no serious adverse events
- tolerability (healthy adult subjects; all doses including 240 mg/1440 mg): well tolerated
- number of muscle proteins (out of 18) statistically highly expressed in fast skeletal muscle ([4]; treated compared to placebo): 15
- differentially expressed genes associated with treatment, fast skeletal muscle ([4]; vastus lateralis biopsies): 3418
- differentially expressed genes associated with treatment, slow skeletal muscle (Type 1) ([4]; vastus lateralis biopsies): 1571
